≈ marks a conversion by molar mass, not a printed value. Like-named read-outs stand apart in the source and are kept apart here.
Experiments:
staphylococci = assay: Minimum inhibitory concentration, microdilution broth method, staphylococci; type: cell-based; conditions: Mueller-Hinton broth, 18-22 hours at 35° C.; for MIC: Staphylococcus aureus
How it was run: (§1)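 Following NCCLS standard M7-A5, MICs were determined by microdilution in Mueller-Hinton broth, with 5% horse blood added for streptococci.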

Streptococci = assay: Minimum inhibitory concentration, microdilution broth method, streptococci; type: cell-based; conditions: Mueller-Hinton broth with 5% horse blood, 18-22 hours at 35° C.; for MIC: S. pneumo GC 1894
How it was run: as §1

[1] = target: T1, S. aureus Uridine-diphosphate-N-acetylmuramoyl-L-alanine: D-glutamate liease, MurD (Staphylococcus aureus, UniProt Q2FZ92); assay: biochemical; conditions: (S) S. aureus enzyme
T1 sequence (Q2FZ92 1-449): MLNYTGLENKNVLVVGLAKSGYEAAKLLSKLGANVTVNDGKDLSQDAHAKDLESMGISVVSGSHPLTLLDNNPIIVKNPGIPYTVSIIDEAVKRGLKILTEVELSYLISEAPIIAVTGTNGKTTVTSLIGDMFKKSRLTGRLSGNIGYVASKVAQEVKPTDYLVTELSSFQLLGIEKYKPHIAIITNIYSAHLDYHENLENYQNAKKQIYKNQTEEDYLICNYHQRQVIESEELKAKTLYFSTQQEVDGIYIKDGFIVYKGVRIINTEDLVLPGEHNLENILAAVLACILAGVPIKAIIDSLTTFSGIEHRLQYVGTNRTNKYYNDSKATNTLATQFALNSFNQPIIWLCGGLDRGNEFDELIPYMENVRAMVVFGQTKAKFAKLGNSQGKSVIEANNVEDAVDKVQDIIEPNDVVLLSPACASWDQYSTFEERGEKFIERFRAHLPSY
How it was run: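 MurD, which catalyses the fourth step of cell wall biosynthesis, was tested for inhibition by compounds. Compounds were made up as 10 mg/mL DMSO stocks and diluted to 100 μg/mL in 50 mM Tris/HCl, pH 8.5.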

enterococci = assay: Minimum inhibitory concentration, microdilution broth method, enterococci; type: cell-based; conditions: Mueller-Hinton broth, 18-22 hours at 35° C.; for MIC: Enterococcus faecalis
How it was run: as §1

[2] = target: T2, S. aureus Uridine-diphosphate-N-acetvimuramoyl: L-alanine lipase, MurC (Staphylococcus aureus, UniProt Q2FXJ0); assay: biochemical; conditions: (S) S. aureus enzyme; for IC50: read-out: MurC IC50 (converted)
T2 sequence (Q2FXJ0 1-437): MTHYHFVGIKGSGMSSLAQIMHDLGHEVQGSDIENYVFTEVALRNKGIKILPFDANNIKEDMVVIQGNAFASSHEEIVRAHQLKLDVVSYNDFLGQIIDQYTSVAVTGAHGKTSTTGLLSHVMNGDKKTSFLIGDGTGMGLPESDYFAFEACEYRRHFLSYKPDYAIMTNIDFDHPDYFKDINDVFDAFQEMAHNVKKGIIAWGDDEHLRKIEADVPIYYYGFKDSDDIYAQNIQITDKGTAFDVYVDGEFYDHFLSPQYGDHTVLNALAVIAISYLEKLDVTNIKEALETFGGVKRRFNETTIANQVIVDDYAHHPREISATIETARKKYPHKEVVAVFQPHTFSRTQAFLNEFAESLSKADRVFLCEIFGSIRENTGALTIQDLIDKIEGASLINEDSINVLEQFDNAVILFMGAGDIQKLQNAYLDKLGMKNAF
Procedure: S. aureus and E. coli Uridine-diphosphate-N-acetvimuramoyl: L-alanine lipase, MurC
Preparation of Enzyme Solution:
A 1 mg/mL stock solution of MurC is prepared in a buffer consisting of 20 mM Tris/HCl (pH 8.5) with 2.5 μM BME. The stock solution is further diluted with the buffer to give a final enzyme concentration of 100 μg/mL for the E. coli stock solution and 70 μg/mL for the S. aureus stock solution.
Preparation of Test Compound Solutions:
All test solutions are prepared in DMSO as 10 mg/mL, then diluted with 50 mM Tris/HCl (pH 8.5) to 100 μg/mL.
Preparation of Stop Solution:
The stop solution is prepared by stirring 1 part 4.2% ammonium molydbate in 4N HCl with 2 parts 0.045% malachite green for 30 min.
In this evaluation, the inhibitory activity of a test compound against MurC, the enzyme which catalyzes the third step of bacterial cell wall bioxynthesis is determined. Experiments are performed by adding 2.5 μl buffer, 2.5 μl 0.5M NH4SO2, 5 μl 2 μM L-Ala, 5 μl enzyme solution and 6.5 μl test compound solution to each well in a 96-well microplate. After a pre-incubation period of 10 mins. at 23° C., 3.75 μl of a 0.75 μM solution of UDP-MurNac is added to each well. Following an incubation period of 10 mins. at 37° C., 210 μl stop solution and 50 μl of a 34% w/v sodium citrate solution are added and color is allowed to develop for 10 mins. at 23° C. (Lanzetta et al., Analytical Biochemistry, 1979, 95) Optical density readings are taken at 660 nm using a Molecular Devices Spectra Max 250 with Soft Max software. Controls are performed using the same procedure and omitting the addition of UDP-MurNac. […]
Using these values the IC50 is determined by linear regression analysis.

[3] = S. aureus GC 1131, read-out: MIC S. aureus GC 1131
[4] = S. aureus GC 4543, read-out: MIC S. aureus GC 4543
[5] = E. faecalis GC 2242, read-out: MIC E. faecalis GC 2242
[6] = E. faecalis GC 4555, read-out: MIC E. faecalis GC 4555

SMILES	MIC (staphylococci; [3]) [µg/mL]	MIC (staphylococci; [4]) [µg/mL]	MIC (Streptococci) [µg/mL]	IC50 [1] [µM]	MIC (enterococci; [5]) [µg/mL]	MIC (enterococci; [6]) [µg/mL]	IC50 [2] [µM]	MIC S. aureus GC 1131 (staphylococci; S. aureus GC 1131) [µg/mL]	MIC S. aureus GC 4543 (staphylococci; S. aureus GC 4543) [µg/mL]	MIC S. pneumo GC 1894 (Streptococci) [µg/mL]	MurD IC50 [1]	MIC E. faecalis GC 2242 (enterococci; E. faecalis GC 2242) [µg/mL]	MIC E. faecalis GC 4555 (enterococci; E. faecalis GC 4555) [µg/mL]	MurC IC50 [2]
Cc1ccccc1-c1ccc(/C=C2\OC(=O)C(c3cc(Cl)cc(Cl)c3)=C2O)cc1C [Example 29]	0.5 (≈ 1.14 µM)	0.5 (≈ 1.14 µM)	< 0.125	38.9	0.5 (≈ 1.14 µM)	2 (≈ 4.57 µM)	54.9	–	–	–	–	–	–	–
CN(C)c1ccc(/C=C2\OC(=O)C(c3ccc(Cl)cc3)=C2O)c2ccccc12 [Example 78]	32 (≈ 81.7 µM)	32 (≈ 81.7 µM)	2 (≈ 5.1 µM)	> 63.8	64 (≈ 163 µM)	64 (≈ 163 µM)	53.6	–	–	–	–	–	–	–
O=C1O/C(=C\c2ccc(C(F)(F)F)cc2)C(O)=C1c1ccc(-c2ccccc2)cc1 [R=H, R1=4-(biphenyl), R2=4-CF3—C6H4]	8 (≈ 19.6 µM)	8 (≈ 19.6 µM)	< 0.125	> 61.2	2 (≈ 4.9 µM)	8 (≈ 19.6 µM)	29.4	–	–	–	–	–	–	–
O=C1O/C(=C\c2ccc(-c3ccccc3)cc2)C(O)=C1c1cccs1 [Example 144]	16 (≈ 46.2 µM)	16 (≈ 46.2 µM)	2 (≈ 5.77 µM)	57.7	32 (≈ 92.4 µM)	> 128	28.9	–	–	–	–	–	–	–
O=C1OC(=Cc2ccc(-c3ccccc3)cc2)C(O)=C1c1cccc(C(F)(F)F)c1 (mixture of isomers) [Example 11]	–	–	–	–	–	–	–	4	2	<0.125	11 µg/mL	1	8	5 µg/mL
O=C1O/C(=C\C2CCCCC2)C(O)=C1c1ccc(-c2ccccc2)cc1 [Example 100]	> 128	> 128	64 (≈ 185 µM)	69.3	> 128	> 128	46.2	–	–	–	–	–	–	–
O=C1O/C(=C\c2ccc(-c3ccccc3)cc2)C(O)=C1c1cccc(C(F)(F)F)c1 [Example 10]	4 (≈ 9.79 µM)	2 (≈ 4.9 µM)	< 0.125	31.8	1 (≈ 2.45 µM)	8 (≈ 19.6 µM)	17.1	–	–	–	–	–	–	–
Cc1cc(/C=C2\OC(=O)C(c3cccc(Cl)c3)=C2O)ccc1-c1ccccc1C(F)(F)F [Example 26]	2 (≈ 4.38 µM)	1 (≈ 2.19 µM)	< 0.125	19.7	2 (≈ 4.38 µM)	4 (≈ 8.76 µM)	13.1	–	–	–	–	–	–	–
COc1cc(/C=C2\OC(=O)C(c3cc(Cl)cc(Cl)c3)=C2O)ccc1-c1ccccc1C(F)(F)F [Example 33]	0.5 (≈ 0.986 µM)	0.5 (≈ 0.986 µM)	0.5 (≈ 0.986 µM)	> 49.3	1 (≈ 1.97 µM)	2 (≈ 3.94 µM)	> 49.3	–	–	–	–	–	–	–
COc1cc(/C=C2\OC(=O)C(c3cccc(Cl)c3)=C2O)ccc1-c1ccccc1Cl [Example 18]	4 (≈ 9.11 µM)	4 (≈ 9.11 µM)	0.5 (≈ 1.14 µM)	41	8 (≈ 18.2 µM)	16 (≈ 36.4 µM)	22.8	–	–	–	–	–	–	–
O=C1O/C(=C\c2ccc(-c3ccccc3)cc2)C(O)=C1c1csc2ccccc12 [Example 143]	8 (≈ 20.2 µM)	8 (≈ 20.2 µM)	1 (≈ 2.52 µM)	25.2	4 (≈ 10.1 µM)	32 (≈ 80.7 µM)	12.6	–	–	–	–	–	–	–
O=C1O/C(=C\c2ccc3ccccc3c2)C(O)=C1c1ccc(Cl)cc1 [Example 54]	8 (≈ 22.9 µM)	16 (≈ 45.9 µM)	< 0.125	> 71.7	4 (≈ 11.5 µM)	32 (≈ 91.7 µM)	31.5	–	–	–	–	–	–	–
O=C1O/C(=C\c2cc(C(F)(F)F)ccc2Cl)C(O)=C1c1ccc(N2CCOCC2)c(F)c1 [Example 142]	–	–	–	–	–	–	–	64 (≈ 136 µM)	>128	8 (≈ 17 µM)	>25 (S) μg/mL	>128	>128	>25 (S) μg/mL
COC(=O)c1ccc(C2=C(O)/C(=C/c3cccc4ccccc34)OC2=O)cc1 [Example 74]	64 (≈ 172 µM)	> 128	32 (≈ 85.9 µM)	> 67.1	> 128	> 128	48.3	–	–	–	–	–	–	–
O=C1O/C(=C\c2ccc(N3CCOCC3)c3ccccc23)C(O)=C1c1cccc(Cl)c1 [Example 37]	16 (≈ 36.9 µM)	16 (≈ 36.9 µM)	8 (≈ 18.4 µM)	43.8	16 (≈ 36.9 µM)	32 (≈ 73.8 µM)	23	–	–	–	–	–	–	–
COc1ccc(/C=C2\OC(=O)C(c3cc(Cl)cc(Cl)c3)=C2O)c2ccccc12 [Example 36]	4 (≈ 9.68 µM)	4 (≈ 9.68 µM)	1 (≈ 2.42 µM)	21.8	4 (≈ 9.68 µM)	8 (≈ 19.4 µM)	12.1	–	–	–	–	–	–	–
O=C1OC(=CC2CCCCC2)C(O)=C1c1cccc(C(F)(F)F)c1 [Example 16]	–	–	–	–	–	–	–	64 (≈ 189 µM)	>128	0.5 (≈ 1.48 µM)	>25 (E); >25 (S) μg/mL	64 (≈ 189 µM)	64 (≈ 189 µM)	22 µg/mL
O=C1O/C(=C\C2CCCCC2)C(O)=C1c1ccc(Cl)cc1 [Example 15]	64 (≈ 210 µM)	64 (≈ 210 µM)	0.5 (≈ 1.64 µM)	> 82	32 (≈ 105 µM)	64 (≈ 210 µM)	> 82	–	–	–	–	–	–	–
O=C1O/C(=C\c2ccc3ccccc3c2)C(O)=C1c1cccc2ccccc12 [Example 56]	16 (≈ 43.9 µM)	32 (≈ 87.8 µM)	4 (≈ 11 µM)	52.1	8 (≈ 22 µM)	32 (≈ 87.8 µM)	30.2	–	–	–	–	–	–	–
O=C1O/C(=C\c2cccc3ccccc23)C(O)=C1c1cccc2ccccc12 [Example 47]	16 (≈ 43.9 µM)	32 (≈ 87.8 µM)	16 (≈ 43.9 µM)	> 68.6	32 (≈ 87.8 µM)	64 (≈ 176 µM)	–	–	–	–	–	–	–	–
O=C1O/C(=C\c2ccc(-c3ccc(Cl)cc3)cc2)C(O)=C1c1ccc(Cl)cc1 [R=H, R1=4-Cl—C6H4, R2=4-(4′-Cl-biphenyl)]	16 (≈ 39.1 µM)	8 (≈ 19.5 µM)	< 0.125	19.5	2 (≈ 4.89 µM)	8 (≈ 19.5 µM)	–	–	–	–	–	–	–	–

— patent publication US7495027B2, “3-aryl-4-hydroxyfuranone compounds and the human and animal health use thereof” (Wyeth, priority 2003, dated 2009)
